Laboratory results taken from ChEMBL document CHEMBL1909046, “DrugMatrix in vitro pharmacology data”.

Columns and labels:
[1] = DRUGMATRIX: Phorbol Ester radioligand binding (ligand: [3H] PDBu); assay type: cell membranes, Mus musculus, ICR, Brain, Membrane; conditions: Not Active = under 50% inhibition at 10 µM
[2] = DRUGMATRIX: Phosphodiesterase PDE4 enzyme inhibition (substrate: [3H]cAMP + cAMP); conditions: u-937; Not Active = under 50% inhibition at 10 µM
[3] = DRUGMATRIX: Calcium Channel Type L, Benzothiazepine radioligand binding (ligand: [3H] Diltiazem); assay type: cell membranes, Rattus norvegicus, Wistar, Brain, Membrane; conditions: Not Active = under 50% inhibition at 10 µM
[4] = target: Prostaglandin G/H synthase 1 (Homo sapiens, UniProt P23219); experiment: biochemical; assay type: tissue-based, Platelet; conditions: platelet;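 note: inhibition of COX-1 enzyme activity, with arachidonic acid supplied as substrate; in other assays of this panel Not Active means under 50% inhibition at 10 µM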
Prostaglandin G/H synthase 1, sequence (P23219 whole entry): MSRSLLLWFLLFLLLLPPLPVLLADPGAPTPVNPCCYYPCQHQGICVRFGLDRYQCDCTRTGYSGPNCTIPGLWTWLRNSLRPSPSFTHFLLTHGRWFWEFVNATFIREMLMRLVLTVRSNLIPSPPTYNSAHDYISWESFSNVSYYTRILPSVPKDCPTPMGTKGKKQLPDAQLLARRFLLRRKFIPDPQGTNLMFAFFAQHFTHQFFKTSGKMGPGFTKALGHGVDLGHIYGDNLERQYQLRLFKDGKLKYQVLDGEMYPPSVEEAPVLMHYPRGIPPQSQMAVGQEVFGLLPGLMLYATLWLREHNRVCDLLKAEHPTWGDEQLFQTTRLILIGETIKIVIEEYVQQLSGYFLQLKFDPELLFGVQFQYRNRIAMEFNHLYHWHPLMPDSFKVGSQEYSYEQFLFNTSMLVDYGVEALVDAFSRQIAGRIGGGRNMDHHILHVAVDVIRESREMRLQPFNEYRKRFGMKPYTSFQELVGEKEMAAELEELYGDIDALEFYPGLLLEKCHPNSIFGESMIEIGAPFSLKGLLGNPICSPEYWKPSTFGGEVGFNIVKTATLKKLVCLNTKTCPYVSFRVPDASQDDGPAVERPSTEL

[5] = DRUGMATRIX: Interleukin IL-1 radioligand binding (ligand: [125I] interleukin 1beta); assay type: cell membranes, Membrane; conditions: nih3t3; Not Active = under 50% inhibition at 10 µM
Glycine receptor = Glycine receptor (Rattus norvegicus, UniProt P22771+P24524+P07727+P20781); assay type: cell membranes, Wistar, Spinal cord, Membrane; note: in other assays of this panel Not Active means under 50% inhibition at 10 µM
[6] = target: Sigma non-opioid intracellular receptor 1 (Homo sapiens, UniProt Q99720); experiment: DRUGMATRIX: Sigma1 radioligand binding (ligand: [3H] Haloperidol); assay type: cell membranes, Jurkat, Membrane; conditions: Not Active = under 50% inhibition at 10 µM
Sigma non-opioid intracellular receptor 1, sequence (Q99720 whole entry): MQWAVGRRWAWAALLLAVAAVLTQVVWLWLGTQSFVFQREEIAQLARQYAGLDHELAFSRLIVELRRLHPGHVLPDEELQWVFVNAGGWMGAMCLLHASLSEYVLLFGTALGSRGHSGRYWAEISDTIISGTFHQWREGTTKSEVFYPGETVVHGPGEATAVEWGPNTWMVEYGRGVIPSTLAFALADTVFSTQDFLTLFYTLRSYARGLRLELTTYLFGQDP

Structure (SMILES) | IC50 [1] | Ki [1] | IC50 [2] | Ki [2] | IC50 [3] | Ki [3] | IC50 [4] | IC50 [5] | Ki [5] | IC50 (Glycine receptor) | IC50 ([6]; jurkat) | IC50 ([3]; read-out: IC50) [µM] | Ki ([3]; read-out: Ki) [µM] | IC50 ([6]; read-out: IC50) [µM] | Ki ([6]; read-out: Ki) [µM]
O=C1CN=C(c2ccccc2Cl)c2cc([N+](=O)[O-])ccc2N1 [CLONAZEPAM] | Not Active | Not Active | Not Active | Not Active | Not Active | Not Active | Not Active | Not Active | Not Active | Not Active | Not Active |  |  |  | 
C[C@@H](CO)NC(=O)[C@@H]1C=C2c3cccc4[nH]cc(c34)C[C@H]2N(C)C1 [ERGONOVINE] | Not Active | Not Active | Not Active | Not Active | Not Active | Not Active | Not Active | Not Active | Not Active | Not Active | Not Active |  |  |  | 
CCn1cc(C(=O)O)c(=O)c2cnc(N3CCCC3)nc21 [PIROMIDIC ACID] | Not Active | Not Active | Not Active | Not Active | Not Active | Not Active | Not Active | Not Active | Not Active | Not Active | Not Active |  |  |  | 
C[C@@H]1C[C@H]2[C@@H]3CCC4=CC(=O)C=C[C@]4(C)[C@@]3(F)[C@@H](O)C[C@]2(C)[C@H]1C(=O)CO [DESOXIMETASONE] | Not Active | Not Active | Not Active | Not Active | Not Active | Not Active | Not Active | Not Active | Not Active | Not Active | Not Active |  |  |  | 
CN(C)CC[C@@H](c1ccc(Cl)cc1)c1ccccn1 [DEXCHLORPHENIRAMINE] | Not Active | Not Active | Not Active | Not Active |  |  | Not Active | Not Active | Not Active | Not Active |  | 6.13 | 5.45 | 1.66 | 0.697
